Results on six molecules are retold here after the NIST ThermoML archive (doi:10.1021/je800925v).

± gives the expanded uncertainty stated by the source.

For series [1] the following is noted: Liquid.
Series [2] can be described thus: xn = mol fraction of the nth substance listed. As to conditions: Liquid, x1 = 1.

Consider `CCCCCCCCCC` [decane], for which, in series [1] (293.15 K), the mass density came out at 731 ± 2.4 kg/m3 and the viscosity amounted to 0.9133 ± 0.028 mPa·s. In series [1] (298.15 K), the mass density turned out to be 727.2 ± 2.4 kg/m3 and the viscosity was determined as 0.8509 ± 0.027 mPa·s.
For the molecule `CCO` [ethanol], in series [1] (293.15 K), the mass density was found to be 790.2 ± 2.2 kg/m3 and the viscosity is recorded as 1.21 ± 0.062 mPa·s. For the same molecule, in series [1] (298.15 K), the mass density amounted to 785.9 ± 2.2 kg/m3 and the viscosity is 1.099 ± 0.059 mPa·s.
For `CCO` [ethanol] + CCCCCC, in series [2] (293.15 K), the mass density was 790.2 ± 2.2 kg/m3 and the viscosity amounted to 1.21 ± 0.062 mPa·s. For the same molecule, in series [2] (298.15 K), the mass density worked out at 785.9 ± 2.2 kg/m3 and the viscosity is 1.099 ± 0.059 mPa·s.
Turning to `CCO` [ethanol] + CCCCCCCC, the results for the mass density in series [2] (293.15 K) and in series [2] (298.15 K) were 790.2 ± 7.5 kg/m3 and 785.9 ± 7.6 kg/m3, respectively.
With `CCCCCC` [hexane], the mass density worked out at 659.8 ± 2.8 kg/m3 in series [1] (293.15 K) and 655.3 ± 2.8 kg/m3 in series [1] (298.15 K). For the same molecule, the viscosity worked out at 0.2979 ± 0.038 mPa·s in series [1] (293.15 K) and 0.2865 ± 0.038 mPa·s in series [1] (298.15 K).
For `CCCCCCCC` [octane], in that order: 705.6 ± 9.5 kg/m3, 701.6 ± 9.6 kg/m3, 0.5374 ± 0.023 mPa·s and 0.5087 ± 0.022 mPa·s.

By mass density is commonly meant the mass of a sample divided by its volume. The term viscosity denotes the resistance of a fluid to flow.
